Data as given in US7598293B2, “Compounds and their use in medicine, process for their preparation and pharmaceutical compositions containing them” (Dr. Reddy's Laboratories, Inc., priority 2001, dated 2009).

Assays:
[1] = tested on: cholesterol fed Syrian Hamsters; assay: Body weight reducing effect in cholesterol fed hamsters; format: in vivo, hamster; details: 3 mg/kg oral
Description: d) Body weight reducing effect in cholesterol fed hamsters: Male Syrian Hamsters are procured from NIN, Hyderabad, India. Animals are housed at DRF animal house under 12 hour light and dark cycle at 25±1° C. with free access to food and water. Animals are maintained with 1% cholesterol containing standard laboratory chow (NIN) from the day of treatment.
The test compounds can be administered orally at 1 to 30 mg/kg/day dose for 15 days. Control group animals are treated with vehicle (Mill Q water, dose 10 ml/kg/day). Body weights are measured on every 3rd day.
(§1) 1. Percent reduction in Blood sugar/triglycerides/total cholesterol will be calculated according to the formula:
(§2) [formula] • OC=Zero day control group value • OT=Zero day treated group value • TC=Test day control group value • TT=Test day treated group value

[2] = tested on: C57BL/KsJ-db/db mice; assay: Efficacy in genetic models: blood sugar and triglyceride lowering in db/db mice; format: in vivo, mouse; details: 3 mg/kg oral, results after 6 days
Text: a) Efficacy in Genetic Models Mutation in colonies of laboratory animals and different sensitivities to dietary regimens has made the development of animal models with non-insulin dependent diabetes and hyperlipidemia associated with obesity and insulin resistance possible. Genetic models such as db/db and ob/ob (Diabetes, (1982) 31(1): 1-6) mice and zucker fa/fa rats have been developed by the various laboratories for understanding the pathophysiology of disease and testing the efficacy of new antidiabetic compounds (Diabetes, (1983) 32: 830-838; Annu. Rep. Sankyo Res. Lab. (1994). 46: 1-57). The homozygous animals, C57 BL/KsJ-db/db mice developed by Jackson Laboratory, US, are obese, hyperglycemic, hyperinsulinemic and insulin resistant (J. Clin. Invest., (1990) 85: 962-967), whereas heterozygous are lean and normoglycemic. In db/db model, mouse progressively develops insulinopenia with age, a feature commonly observed in late stages of human type II diabetes when blood sugar levels are insufficiently controlled. The state of pancreas and its course vary according to the models. Since this model resembles that of type II diabetes mellitus, the compounds of the present invention will be tested for blood sugar and triglycerides lowering activities.
Male C57BL/KsJ-db/db mice of 8 to 14 weeks age, having body weight range of 35 to 60 grams, bred at Dr. Reddy's Research Foundation (DRF) animal house, were used in the experiment. The mice are provided with standard feed (National Institute of Nutrition (NIN), Hyderabad, India) and acidified water, ad libitum. The animals having more than 350 mg/dl blood sugar will be used for testing. The number of animals in each group will be 4.
Test compounds are suspended on 0.25% carboxymethyl cellulose and administered to test group at a dose of 0.1 mg to 30 mg/kg through oral gavage daily for 6 days. The control group receives vehicle (dose 10 ml/kg). On 6th day the blood samples will be collected one hour after administration of test compounds/vehicle for assessing the biological activity.
The random blood sugar and triglyceride levels can be measured by collecting blood (100 μl) through orbital sinus, using heparinised capillary in tubes containing EDTA which was centrifuged to obtain plasma. The plasma glucose and triglyceride levels can be measured spectrometrically, by glucose oxidase and glycerol-3-PO4 oxidase/peroxidase enzyme (Dr. Reddy's Lab. Diagnostic Division Kits, Hyderabad, India) methods respectively.
The blood sugar and triglycerides lowering activities of the test compound are calculated according to the formula.
as §1, §2

[3] = tested on: Swiss albino mice; assay: Plasma triglyceride and total cholesterol lowering activity in Swiss albino mice; format: in vivo, mouse; details: results after 6 days
Description: c) Plasma triglyceride and total cholesterol lowering activity in Swiss albino mice Male Swiss albino mice (SAM) were obtained from NIN and housed in DRF animal house. All these animals are maintained under 12 hour light and dark cycle at 25±1° C. Animals are given standard laboratory chow (NIN, Hyderabad, India) and water, ad libitum. SAM of 20-25 g body weight range and Guinea pigs of 500-700 g body weight range are used (Oliver, P., Plancke, M. O., Marzin, D., Clavey, V., Sauzieres, J and Fruchart, J. C. Effects of fenofibrate, gemfibrozil and nicotinic acid on plasma lipoprotein levels in normal and hyperlipidemic mice. Atherosclerosis. 1988. 70: 107-114).
The test compounds can be administered orally to Swiss albino mice at 0.3 to 30 mg/kg/day dose for 6 days. Control mice are treated with vehicle (0.25% Carboxymethylcellulose; dose 10 ml/kg). The test compounds are administered orally to Guinea pigs at 0.3 to 30 mg/kg/day dose for 6 days. Control animals are treated with vehicle (0.25% Carboxymethylcellulose; dose 5 ml/kg). The blood samples can bc collected in fed state 1 hour after drug administration on 0 and 6 day of treatment. The blood can be collected from the retro-orbital sinus through heparinised capillary in EDTA containing tubes. After centrifugation, plasma sample was separated for triglyceride (Wieland, O. Methods of Enzymatic analysis. Bergermeyer, H. O., Ed., 1963. 211-214; Trinder, P. Ann. Clin. Biochem. 1969. 6: 24-27). Measurement of plasma triglyceride is done using commercial kits (Dr. Reddy's Diagnostic Division, Hyderabad, India).
as §1, §2

Question: Which “Reduction in Body weight (%)” value [1] does the source give for `CCOC(Cc1ccc(NC(=O)OCCCc2ccc(OS(C)(=O)=O)cc2)cc1)C(=O)O` (centres unmarked) [Example 16, 2-Ethoxy-3-[4-{3-(4-methanesulfonyloxyphenyl)propyloxycarbonylamino}phenyl]propionic acid] here?
Answer: 19%

Question: What about the “Reduction in Total Cholesterol (%)” value [1] of the same compound?
Answer: 63%

Question: What about the “Reduction in Triglyceride (%)” value [1] of the same compound?
Answer: 77%

Question: What about the “Reduction in Blood Glucose Level (%)” value [2] of the same compound?
Answer: 15%

Question: What about the “Triglyceride Lowering (%)” value [2] of the same compound?
Answer: 39%

Question: `CCOC(Cc1ccc(NCCCc2ccc(N(C(=O)OC(C)(C)C)S(C)(=O)=O)cc2)cc1)C(=O)O` (centres unmarked) [Example 30] was tested. Which “Triglyceride Lowering (%)” value ([3]; 3 mg/kg oral) did it give?
Answer: 41%

Question: `CCOC(Cc1ccc(NCCCc2ccc(OS(=O)(=O)c3ccc(C)cc3)cc2)cc1)C(=O)O` (centres unmarked) [Example 19, 2-ethoxy-3-[4-{3-(4-(toluene-4-sulfonyloxy)phenyl)propylamino}phenyl]propionate] was tested. Which “Triglyceride Lowering (%)” value ([3]; 1 mg/kg oral) did it give?
Answer: 39%

Question: How did the “Triglyceride Lowering (%)” value ([3]; 1 mg/kg oral) turn out when “2-Ethoxy-3-[4-(4-methanesulfonyloxybenzylamino)phenyl]propionic acid arginine salt [Example 38]” was run?
Answer: 41%
